# In publication PMC12040169 (PLOS Biology, 2025):
# Assay: in vitro
# Conditions: human, hela cells, % viability
row,SMILES,"viability at 28.5 h, 10 µM"
1,COc1ccc2c(c1)CCN=C2C[C@H]1CN(C(=O)NC(C)C)CC[C@H]1CC(=O)O [CBK289156],90%
2,O=C(Nc1cccc2[nH]ccc12)c1cccc(F)c1Cl [CBK159638],76.4%
3,O=C(c1ccncc1)N1C2CCC1CC(O)(c1ccc(F)cc1)C2 (stereo not shown) [CBK283545],95.6%
4,CC(=O)N(C)[C@H]1CC[C@]2(CC1)CNC(=O)c1cc(C)ccc1O2 [CBK281690],101%
5,CCOC(=O)Cn1nc(CC)n2c(cc3ccsc32)c1=O [CBK284133],83.9%
6,COc1cc(CNC(=O)NC(=O)C2CCN(CCc3c(-c4ccccc4)[nH]c4ccccc34)CC2)cc(OC)c1OC [CBK034859],91.7%
7,COc1cc(CN2CCN(C(=O)c3cccc(F)c3)CC2)cc(OC)c1O [CBK074633],95.2%
8,CCN(CCCCC1NC(=O)NC1=O)Cc1ccncc1 (stereo not shown) [CBK143967],89.1%
9,CCCCOc1nccnc1-c1ccsc1 [CBK106778],101%
10,CCCCOc1ccc(NC(=O)NCCC2=CCCCC2)cc1 [CBK043751],92.1%
11,COc1ccc(-c2cn(-c3ccc(OC(F)(F)F)cc3)nn2)cc1 [CBK113024],110%
12,CNc1nc(C2CCN(C(=O)c3ccc(N4CCC(C)CC4)cc3)C2)nc2c1CCN(C)C2 (stereo not shown) [CBK285835],106%
13,O=S(=O)(Oc1ccc(-c2cnc3ccccc3n2)cc1)c1ccccc1 [CBK261104],93.4%
14,C=CCNC(=O)N[C@H]1CCN2C(=O)c3ccc(Cl)cc3NC(=O)[C@@H]2C1 [CBK289569],95.9%
15,O=S(=O)(NCC(c1ccccc1)N1CCNCC1)c1ccccc1 (stereo not shown) [CBK262813],105%
16,O=C(Nc1ccc(S(=O)(=O)Nc2ncccn2)cc1)c1ccc(N2C(=O)c3ccccc3C2=O)cc1 [CBK264868],94%
17,C=CCn1c(CCCNC=O)nc2ccccc21 [CBK269375],94.2%
18,Cc1ccc(OCC(=O)N2CCCCC2c2nccs2)cc1 (stereo not shown) [CBK305091],88.7%
19,Cn1nc(C2CCN(C(=O)C3CCCCC3)CC2)c2cccnc21 [CBK284897],78.6%
20,O=C(c1cc(F)c(F)cc1F)N1CCC2(CCCN(C/C=C/c3ccccc3)C2)C1 (stereo not shown) [CBK132001],107%
21,O=C(NC1CCCC1)c1ccc(=O)[nH]c1 [CBK058093],104%

row,SMILES,"viability at 28.5 h, 10 µM"
1,COc1cc(CNCC2CCCO2)cc(Cl)c1OCC(N)=O (stereo not shown) [CBK270238C],88.4%
2,O=S(=O)(c1ccc2ccccc2c1)N1CCN(CCCOc2ccccc2Cl)CC1 [CBK267018],106%
3,O=C(COc1ccc2c(c1)OCO2)NCc1ccccn1 [CBK269983],95.3%
4,O=C(c1nc[nH]n1)N1CCN(c2nccc(CCC(F)(F)F)n2)CC1 [CBK307306],106%
5,Cc1ccnc(Sc2nc3c(c(=O)[nH]c(=O)n3C)n2CCCc2ccccc2)n1 [CBK269353],79.4%
6,COc1ccc2nc(O)c(CN(c3ccccc3)S(=O)(=O)c3ccccc3)cc2c1 [CBK268093],97.7%
7,CCc1nc(C)ccc1OCC(O)CNC(C)(C)C (stereo not shown) [CBK019698],94.3%
8,O=C(Cn1cnc(NCc2cscn2)n1)N1CCCCCC1 [CBK304061],98%
9,CN1CCN(C(=O)Cn2cccc(C(=O)Nc3ccc(F)cc3)c2=O)C(c2ccccc2)C1 (stereo not shown) [CBK286045],96.6%
10,O=C(Nc1ncn(CC(=O)N2CCCCCC2)n1)c1ccsc1 [CBK304974],99.4%
11,CC(=O)N1CCc2c([nH]c3c(C)cccc23)C12CCN(CCOc1ccccc1)C2 (stereo not shown) [CBK039646],85.4%
12,O=C(O)CCCCCN1C(=O)C2CC=CCC2C1=O (stereo not shown) [CBK286534],82.5%
13,CCc1nc2ccccc2n1CC(=O)N(C)C(C)c1cccnc1 (stereo not shown) [CBK304017],110%
14,COc1ccccc1N1CCN(C(=O)NCCc2c[nH]cn2)CC1 [CBK155369],98.8%
15,CS(=O)(=O)N1CC2(CCN(Cc3ccc4nsnc4c3)CC2)c2ccccc21 [CBK136957],92.9%
16,COc1ccccc1-c1cc2nc(C)cc(N3CCOCC3)n2n1 [CBK304532],88.7%
17,CCNS(=O)(=O)c1ccc(CCC(=O)Nc2ccc3c(c2)OCCO3)cc1 [CBK268255],109%
18,N#CCC(=O)N1CCN(Cc2ccc3c(c2)OCO3)CC1 [CBK074447],88.7%
19,CCOC(=O)CSc1nc2cc(Cl)c(Cl)cc2nc1NC(C)C [CBK107173],97.1%
20,CCOC(=O)c1cnc(Nc2nc3ccccc3o2)nc1CN1CCN(c2ccccc2)CC1 [CBK266927],93.1%
21,CCCCC1CCC(C(=O)Oc2ccccc2OCCO)CC1 (stereo not shown) [CBK081498],90.6%

row,SMILES,"viability at 28.5 h, 10 µM"
1,NNC(=O)CCn1c2ccc(Cl)cc2c2cc(Cl)ccc21 [CBK261413],88.8%
2,OCCN1CCN(CCCc2ccccc2)CC1 [CBK261872],86%
3,COC(=O)c1ccccc1NC(=O)C(C)Oc1ccc(Cl)cc1C (stereo not shown) [CBK262388],79.2%
4,CCOC(=O)N1CCN(c2cc3[nH]c(S)nc3cc2F)CC1 [CBK288444],89.9%
5,Cc1cc2ccccc2n2c(=O)n(CC(=O)N3CCCCC3C)nc12 (stereo not shown) [CBK283882],87.1%
6,CC(C)(C)OC(=O)N1CCC(C2OCc3cc(-c4ccc(C(=O)N5CCOCC5)o4)ccc3O2)CC1 (stereo not shown) [CBK173615],85.6%
7,O=C1N(CN2CCN(C(c3ccccc3)c3ccccc3)CC2)c2ccccc2C12OCCCO2 [CBK265538],85.6%
8,Cc1occc1C(=O)Nc1nc(CC(=O)N2CC(C)SC(C)C2)cs1 (stereo not shown) [CBK306271],87.8%
9,CC(C)[C@H](NC(=O)C1CC(=O)N(c2ccc(F)cc2)C1)C(=O)N1CCC(C(=O)O)CC1 (stereo partly shown) [CBK286669],94.8%
10,O=C(c1ccccc1F)N1CCC(O)(c2cccnc2F)CC1 [CBK284356],97.1%
11,CC(=O)Nc1ccc(-c2cncc(N3CCN(CCN4CCCC4)CC3)n2)cc1 [CBK065710],103%
12,Nc1ncc(-c2ccco2)nc1NCc1ccco1 [CBK063682],91.8%
13,CC(C)N1CCC[C@H]1c1nc(-c2ccc(-c3cncnc3)nc2)no1 [CBK288892],115%
14,COc1ccccc1-c1ccc(C(=O)N(C)CCN(C)C)c(N(C)C)n1 [CBK106075],88.5%
15,CN1CCN(C(=O)c2[nH]c3ccccc3c2NS(=O)(=O)/C=C/c2ccccc2)CC1 [CBK050047],106%
16,O=C(O)C1CSC(c2cc3ccccc3o2)N1 (stereo not shown) [CBK019502],93.7%
17,O=c1[nH]c2ccccc2n1CCCSc1nnc2c(n1)[nH]c1ccccc12 [CBK264917],118%
18,O=C(NCc1c(F)cccc1F)C1(c2ccccc2)CCCC1 [CBK149527],91.7%
19,CCOC(=O)CNS(=O)(=O)c1cccc(Cl)c1C [CBK004702],103%
20,Cn1nnnc1SCC(=O)Nc1cccc2nsnc12 [CBK268973],101%
21,CN1CCC2(CC1)SC(=O)Nc1ccc(Br)cc12 [CBK017821B],100%

row,SMILES,"viability at 28.5 h, 10 µM"
1,CCCc1[nH]nc(O)c1Cc1ccc(C(F)(F)F)cc1 [CBK075014],88.9%
2,COC(=O)Nc1ccccc1N1CCN(CCCCN2CCN(c3ccccc3)C2=O)CC1 [CBK024372C],91.8%
3,CC(c1ccc(Cl)cc1Cl)N(C)C(=O)Cn1cnc2c1CCCC2 (stereo not shown) [CBK306387],88%
4,O=C(Nc1ccc(Oc2cccnc2)cc1)C1CCCN1 (stereo not shown) [CBK282498],110%
5,Cn1c(=O)[nH]c(=O)c2c1nc(N/N=C/c1cc(Br)ccc1O)n2CCO [CBK139415],97.8%
6,O=C(O)c1ccccc1OCCCCOc1cccc2cccnc12 [CBK264136],87.2%
7,Cc1[nH]c(=O)c(S(=O)(=O)c2ccccc2)c(C)c1Cl [CBK018736],83.1%
8,C=CCn1c(Cc2csc(NC(=O)c3cc(S(=O)(=O)NC)ccc3C)n2)n[nH]c1=S [CBK297903],105%
9,COc1cc(Cl)cc(/C=N/Nc2nc(Nc3ccc(C)c(Cl)c3)nc(N3CCOCC3)n2)c1O [CBK262436],102%
10,COc1ccc(-c2csc(NC(=O)C(C)C)c2C(=O)O)cc1 [CBK286622],83.1%
11,Cc1csc2c(C3CCN(C(=O)c4cscn4)CC3)nc(C)n12 [CBK285246],80.2%
12,NS(=O)(=O)c1ccc(CCNCc2ccc3c(c2)OCO3)cc1 [CBK269819C],88.5%
13,CCOC(=O)C1CCN(S(=O)(=O)c2ccc(C(C)C)cc2)CC1 [CBK200044],86.4%
14,CCOc1cc(OCC)cc(C(=O)N2CCC3(CC2)NC(=O)c2cc(I)ccc2O3)c1 [CBK166301],94.1%
15,COc1ccc([C@@]23CC[C@@H](NC(=O)Cc4ccc(Cl)cc4)CC2N(C)CC3)cc1OC (stereo partly shown) [CBK074971T],96%
16,Cc1ccc(OCc2occc2C(=O)N2CCCC3(CCOC3)C2)cc1 (stereo not shown) [CBK307532],89.4%
17,CCc1cccc2c(CC(=O)N(C)CCN(C)C)c(C)[nH]c12 [CBK282673],102%
18,Cc1noc(C)c1S(=O)(=O)Nc1c(C(=O)N2CCN(C)CC2)[nH]c2ccccc12 [CBK050057],98.9%
19,Cc1nn(Cc2c(F)cccc2Cl)c(C)c1NC(=O)c1cnn2c(C(F)F)cc(-c3ccccc3)nc12 [CBK267634],95.3%

# Same assay, conditions: human, hela cells, % viability, bulk resorufin, single well
row,SMILES,"viability at 28.5 h, 10 µM"
1,COc1cccc2c1OC1(CCN(C(=O)Nc3ccc(F)cc3F)CC1)OC2 [CBK060689],100%
2,COc1ccc(N2C(=O)/C(=C/c3cc(C)n(-c4cccc(C(=O)O)c4C)c3C)C(=O)NC2=S)cc1 [CBK264315],96.6%
3,COc1ccc2c(c1)COC1(CCN(C(=O)Nc3ccc(N(C)C)cc3)CC1)O2 [CBK060753],98.8%
4,CN(C)CCN/C=C1/C(=O)NC(=S)N(c2ccccc2Cl)C1=O [CBK261826],86.4%
5,COc1cc(NC(=O)Nc2ccc3c(c2)COC2(CCNCC2)O3)cc(OC)c1OC [CBK091530T],94.9%
6,O=C(Cc1ccc(Cl)c(Cl)c1)Nc1ccccc1-c1ccc2c(c1)COC1(CCNCC1)O2 [CBK107890],100%
